Data reported in PubChem BioAssay AID1963864 (Molecular Pharmacology Branch, DTP, NCI, 2024).

Tested on: KRAS PDC multicell spheroid viability
Assay: Anticancer human tumor 521955-158-R6-J3-PDC patient-derived pancreatic carcinoma cell line growth inhibition [KRAS2]
Settings: for IC50: curve of first compound; for viability, T/C: stronger effect = lower value
Text: Multicellular complex tumor spheroid response to RAS pathway inhibitors in combination with a targeted agents in patient-derived cell lines with oncogenic KRAS variants from multiple cancer types
A high-throughput screen of multi-cell type tumor spheroids was designed to identify active combinations of targeted small molecules and KRAS pathway inhibitors. Complex spheroids include a stromal component modeled by human endothelial cells (HUVEC) and fibroblasts modeled by human mesenchymal stem cells (MSCs). The concentration ranges selected for each drug and investigational agent were based upon clinically achievable concentrations if the clinical Cmax of the agent was known.
Compounds. The drugs and investigational agents: BI-3406 (NSC825286), BAY-293 (NSC824723), batoprotafib (TNO155; NSC825523), sotorasib (AMG 510; NSC818433), MRTX1257 (NSC819558), elimusertib (BAY 1895344; NSC800525), molibresib (GSK525762; NSC774829), temuterkib (LY3214996; NSC803410), venetoclax (NSC766270), alisertib (NSC759677), olaparib (NSC753686), talazoparib (NSC767125), erdafitinib (NSC781556), ipatasertib (NSC767898), cabozantinib (NSC761068), nintedanib (NSC756659), abemaciclib (NSC768073), docetaxel (NSC628503), trametinib (NSC758246), and sapanisertib (NSC764658) were obtained from the National Cancer Institute (NCI) Developmental Therapeutics Program Chemical Repository. The FDA-approved anticancer drug set is available from the Developmental Therapeutics Program. […] The stock solutions were prepared in dimethyl sulfoxide (DMSO, Sigma-Aldrich, St. Louis, MO, cat. D2650) at 800-fold the tested concentration and stored at -70 degrees C prior to their use. All drugs and investigational agents were tested over a range starting from a high concentration at or near the clinical Cmax and decreasing in half-log increments. If the clinical Cmax for an agent had not been determined, the highest concentration tested was 10 microM.
Cell Culture. All cells were maintained in an incubator at 37 degrees C and 5% CO2 with 95% humidity. The PDC lines were cultured according to standard operating procedures established by the NCI PDMR (https://pdmr.cancer.gov/sops/default.htm). Briefly, all PDCs were thawed and cultured in Matrigel-coated flasks prepared with a working solution of 1X Ham's F-12 nutrient mix, without supplementation (Invitrogen, Waltham, MA, cat. 11765054), 100 U/mL penicillin-streptomycin (Invitrogen, cat. 15140122), and 2.5% Matrigel (Corning Inc., Corning, NY, cat. 354248) for the first three passages. All PDCs were cultured in complete DMEM/F-12 media containing advanced DMEM/F-12 (Invitrogen, cat. 12634028), 4.9% defined fetal bovine serum, heat inactivated (HyClone Laboratories Inc., Logan, UT, cat. SH30070.03HI), 389 ng/mL hydrocortisone (Sigma-Aldrich, cat. H4001), 9.7 ng/mL human EGF recombinant protein (Invitrogen, cat. PHG0313), 23.4 microg/mL adenine (Sigma-Aldrich, cat. A2786), 97.3 U/mL penicillin-streptomycin (Invitrogen, cat. 15140122), 1.9 mM L-glutamine (Invitrogen, cat. 25030081), and 9.7 microM Y-27632 dihydrochloride (Tocris Bioscience, Bristol, United Kingdom, cat. 1254). The PDCs were cultured in complete DMEM/F12 media without 9.7 microM Y-27632 dihydrochloride for at least two passages prior to the screen. The established cell line HOP-62 was cultured in RPMI 1640 medium, HEPES (Invitrogen, cat. 22400105) with 10% defined fetal bovine serum (HyClone Laboratories Inc., cat. SH30070.03) and 2 mM L-glutamine (Invitrogen, cat. 25030081). The pooled donor HUVEC were cultured in endothelial cell growth medium 2 (PromoCell, Heidelberg, Germany, cat. C-22011) and the hMSC were cultured in mesenchymal stem cell growth medium 2 (PromoCell, cat. C-28009). For all experiments, HUVEC and hMSC were used at passages </=5, while the malignant cell lines were used at passages </=15. […]

[1] = second compound 0.1 µM, first compound 0.000316 µM
[2] = second compound 0.1 µM, first compound 0.001 µM
[3] = second compound 0.1 µM, first compound 0.00316 µM
[4] = second compound 0.1 µM, first compound 0.01 µM
[5] = second compound 0.1 µM, first compound 0.0316 µM
[6] = second compound 0.316 µM, first compound 0.000316 µM
[7] = second compound 0.316 µM, first compound 0.001 µM
[8] = second compound 0.316 µM, first compound 0.00316 µM
[9] = second compound 0.316 µM, first compound 0.01 µM
[10] = second compound 0.316 µM, first compound 0.0316 µM
[11] = second compound 1 µM, first compound 0.000316 µM
[12] = second compound 1 µM, first compound 0.001 µM
[13] = second compound 1 µM, first compound 0.00316 µM
[14] = second compound 1 µM, first compound 0.01 µM
[15] = second compound 1 µM, first compound 0.0316 µM
[16] = second compound 3.16 µM, first compound 0.000316 µM
[17] = second compound 3.16 µM, first compound 0.001 µM
[18] = second compound 3.16 µM, first compound 0.00316 µM
[19] = second compound 3.16 µM, first compound 0.01 µM
[20] = second compound 3.16 µM, first compound 0.0316 µM
[21] = second compound 10 µM, first compound 0.000316 µM
[22] = second compound 10 µM, first compound 0.001 µM
[23] = second compound 10 µM, first compound 0.00316 µM
[24] = second compound 10 µM, first compound 0.01 µM
[25] = second compound 10 µM, first compound 0.0316 µM
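Note: drug exposure lasted seven days.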
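Throughout, for viability, T/C: 100% = DMSO vehicle wells and lower means fewer viable cells.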

CC(=O)Nc1cccc(-n2c(=O)n(C3CC3)c(=O)c3c(Nc4ccc(I)cc4F)n(C)c(=O)c(C)c32)c1 + C=CC(=O)N1CCN(c2nc(=O)n(-c3c(C)ccnc3C(C)C)c3nc(-c4c(O)cccc4F)c(F)cc23)C(C)C1
IC50 (second compound 0.1 µM): 25.5 nM | IC50 (second compound 0.316 µM): > 31.6 nM | IC50 (second compound 1 µM): > 31.6 nM | IC50 (second compound 3.16 µM): > 31.6 nM | IC50 (second compound 10 µM): 8.58 nM | viability, T/C (second compound 0.1 µM, first compound 0.0001 µM): 97.7% | viability, T/C [1]: 96.3% | viability, T/C [2]: 92% | viability, T/C [3]: 88.1% | viability, T/C [4]: 69.1% | viability, T/C [5]: 45.2% | viability, T/C (second compound 0.316 µM, first compound 0.0001 µM): 107% | viability, T/C [6]: 99.1% | viability, T/C [7]: 95.4% | viability, T/C [8]: 83.7% | viability, T/C [9]: 72.8% | viability, T/C [10]: 50.5% | viability, T/C (second compound 1 µM, first compound 0.0001 µM): 102% | viability, T/C [11]: 99.9% | viability, T/C [12]: 98.5% | viability, T/C [13]: 88.1% | viability, T/C [14]: 83.4% | viability, T/C [15]: 51% | viability, T/C (second compound 3.16 µM, first compound 0.0001 µM): 84.4% | viability, T/C [16]: 92.2% | viability, T/C [17]: 91.9% | viability, T/C [18]: 90.7% | viability, T/C [19]: 71.6% | viability, T/C [20]: 52.2% | viability, T/C (second compound 10 µM, first compound 0.0001 µM): 64.4% | viability, T/C [21]: 69.8% | viability, T/C [22]: 58.4% | viability, T/C [23]: 58.4% | viability, T/C [24]: 46.3% | viability, T/C [25]: 41%

CC(C)n1nc(-c2ccc3oc(N)nc3c2)c2c(N)ncnc21 + C=CC(=O)N1CCN(c2nc(=O)n(-c3c(C)ccnc3C(C)C)c3nc(-c4c(O)cccc4F)c(F)cc23)C(C)C1
IC50 (second compound 0.1 µM): > 100 nM | IC50 (second compound 0.316 µM): > 100 nM | IC50 (second compound 1 µM): > 100 nM | IC50 (second compound 3.16 µM): > 100 nM | IC50 (second compound 10 µM): 84.8 nM | viability, T/C [1]: 96.2% | viability, T/C [2]: 90.9% | viability, T/C [3]: 75.6% | viability, T/C [4]: 67.9% | viability, T/C [5]: 62.5% | viability, T/C (second compound 0.1 µM, first compound 0.1 µM): 55.4% | viability, T/C [6]: 91.7% | viability, T/C [7]: 97.7% | viability, T/C [8]: 92.8% | viability, T/C [9]: 70.8% | viability, T/C [10]: 66.9% | viability, T/C (second compound 0.316 µM, first compound 0.1 µM): 53.3% | viability, T/C [11]: 97.8% | viability, T/C [12]: 90.6% | viability, T/C [13]: 77.3% | viability, T/C [14]: 71.9% | viability, T/C [15]: 67.4% | viability, T/C (second compound 1 µM, first compound 0.1 µM): 53.5% | viability, T/C [16]: 93% | viability, T/C [17]: 93% | viability, T/C [18]: 81.4% | viability, T/C [19]: 70.2% | viability, T/C [20]: 66.7% | viability, T/C (second compound 3.16 µM, first compound 0.1 µM): 56.4% | viability, T/C [21]: 99% | viability, T/C [22]: 89.9% | viability, T/C [23]: 74.6% | viability, T/C [24]: 77.2% | viability, T/C [25]: 59.8% | viability, T/C (second compound 10 µM, first compound 0.1 µM): 47.5%
